# ChEMBL document CHEMBL1201862, “PubChem BioAssay data set” (2004)
#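 Test compounds were applied to cells in 96-well plates for 48 hours at 5 doses. GI50 = concentration required for 50% inhibition of growth.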 Calls of active or inactive are those of the source. Rule as the data show it: active = GI50 up to about 1.1 µM and inactive = higher.
# Legend:
# Experiment in all cases: NCI-60 cell line screen, 48 h
# CCRF-CEM = test system: CCRF-CEM
# TK-10 = test system: TK-10
# 786-0 = test system: 786-0
# DU-145 = test system: DU-145
# MDA-N = test system: MDA-N
# SR = test system: SR
# NCI-H226 = test system: NCI-H226
# HCT-15 = test system: HCT-15
# HCC 2998 = test system: HCC 2998
# MOLT-4 = test system: MOLT-4
# ACHN = test system: ACHN
# MDA-MB-231 = test system: MDA-MB-231
# MCF7 = test system: MCF7
# UACC-257 = test system: UACC-257
# HCT-116 = test system: HCT-116
# RXF 393 = test system: RXF 393
# RPMI-8226 = test system: RPMI-8226
# Hs-578T = test system: Hs-578T
# IGROV-1 = test system: IGROV-1
# HT-29 = test system: HT-29
SMILES,GI50 (CCRF-CEM),GI50 (TK-10),GI50 (786-0),GI50 (DU-145),GI50 (MDA-N),GI50 (SR),GI50 (NCI-H226),GI50 (HCT-15),GI50 (HCC 2998),GI50 (MOLT-4),GI50 (ACHN),GI50 (MDA-MB-231),GI50 (MCF7),GI50 (UACC-257),GI50 (HCT-116),GI50 (RXF 393),GI50 (RPMI-8226),GI50 (Hs-578T),GI50 (IGROV-1),GI50 (HT-29)
N=c1oc2ccc(Cl)cc2cc1C(=O)NCc1ccccc1,21.5 µM (inactive),> 100 µM (inactive),> 100 µM (inactive),> 100 µM (inactive),> 81.7 µM (inactive),> 57.1 µM (inactive),> 100 µM (inactive),> 77.8 µM,> 100 µM (inactive),31.2 µM (inactive),> 91.8 µM (inactive),> 100 µM (inactive),> 100 µM (inactive),> 100 µM (inactive),> 100 µM (inactive),17.8 µM (inactive),> 89.3 µM (inactive),30.5 µM (inactive),> 100 µM (inactive),> 100 µM (inactive)
O=P1(N(CCCl)CCCl)NCCCO1 (stereo not given) [CYCLOPHOSPHAMIDE ANHYDROUS],200 µM (inactive),> 250 µM (inactive),> 250 µM (inactive),> 250 µM (inactive),> 250 µM (inactive),> 250 µM (inactive),249 µM (inactive),> 250 µM,193 µM (inactive),249 µM (inactive),> 250 µM (inactive),> 250 µM (inactive),> 250 µM (inactive),211 µM (inactive),> 250 µM (inactive),> 250 µM (inactive),> 250 µM (inactive),> 250 µM (inactive),> 216 µM (inactive),> 226 µM (inactive)
CN(C)CCOc1ccc2c(c1)C/C(=C/c1ncc([N+](=O)[O-])n1C)C2=O,2.7 µM (inactive),3.52 µM (inactive),1.82 µM (inactive),3.13 µM (inactive),3.94 µM (inactive),0.242 µM (active),1.46 µM (inactive),0.377 µM,2.03 µM (inactive),1.21 µM (inactive),1.36 µM (inactive),1.91 µM (inactive),0.703 µM (active),3.79 µM (inactive),1.27 µM (inactive),1.17 µM (inactive),1.37 µM (inactive),12.9 µM (inactive),0.233 µM (active),1.35 µM (inactive)
Oc1c(Cl)c(Cl)c(Cl)c(Cl)c1Cl [PENTACHLOROPHENOL],21.3 µM (inactive),> 100 µM (inactive),21 µM (inactive),21.4 µM (inactive),23.2 µM (inactive),26.1 µM (inactive),28.4 µM (inactive),19.5 µM,> 100 µM (inactive),20.6 µM (inactive),18.9 µM (inactive),13.3 µM (inactive),24.9 µM (inactive),> 100 µM (inactive),17.4 µM (inactive),23.2 µM (inactive),22.1 µM (inactive),35.2 µM (inactive),18.8 µM (inactive),21.2 µM (inactive)
CCOCC(=O)N[C@H]1CCc2cc(OC)c(OC)c(OC)c2-c2ccc(SC)c(=O)cc21,< 0.0182 µM (active),0.406 µM (active),< 0.01 µM (active),< 0.01 µM (active),< 0.01 µM (active),< 0.01 µM (active),0.0465 µM (active),< 0.01 µM,< 0.01 µM (active),< 0.01 µM (active),< 0.0117 µM (active),< 0.01 µM (active),< 0.01 µM (active),< 0.0169 µM (active),< 0.01 µM (active),< 0.01 µM (active),< 0.01 µM (active),< 0.01 µM (active),< 0.01 µM (active),< 0.01 µM (active)
CC1C[C@]2(C)C(=O)N(c3ccccc3)C(=N)[C@@H]2N(C)c2ccccc21 (stereo not given in full),> 100 µM (inactive),> 100 µM (inactive),> 100 µM (inactive),> 100 µM (inactive),> 100 µM (inactive),> 100 µM (inactive),> 100 µM (inactive),> 100 µM,> 100 µM (inactive),> 100 µM (inactive),> 100 µM (inactive),> 100 µM (inactive),> 100 µM (inactive),> 100 µM (inactive),> 100 µM (inactive),> 100 µM (inactive),> 100 µM (inactive),> 100 µM (inactive),> 100 µM (inactive),> 100 µM (inactive)
CC(=O)c1c(C(F)(F)F)[n+]([O-])c2cc(Cl)c(Cl)cc2[n+]1[O-],0.146 µM (active),0.212 µM (active),0.168 µM (active),1.26 µM (inactive),1.12 µM (inactive),0.0196 µM (active),1.46 µM (inactive),0.196 µM,0.184 µM (active),0.0798 µM (active),0.548 µM (active),1.3 µM (inactive),0.265 µM (active),0.762 µM (active),0.249 µM (active),0.895 µM (active),0.129 µM (active),0.483 µM (active),0.111 µM (active),0.792 µM (active)
CC(=O)OC/C=C/[C@H](O[Si](C)(C)C(C)(C)C)[C@@H](O)/C=C/COC(C)=O,26 µM (inactive),> 100 µM (inactive),> 100 µM (inactive),> 100 µM (inactive),> 100 µM (inactive),30.4 µM (inactive),> 100 µM (inactive),> 100 µM,> 100 µM (inactive),23.7 µM (inactive),> 100 µM (inactive),> 100 µM (inactive),49.5 µM (inactive),> 100 µM (inactive),> 100 µM (inactive),> 100 µM (inactive),20.6 µM (inactive),> 100 µM (inactive),> 100 µM (inactive),> 100 µM (inactive)
CN(C)CCOc1ccc(-c2c(Oc3ccc(Cl)cc3)c(=O)oc3ccccc23)cc1,4.41 µM (inactive),10.4 µM (inactive),4.27 µM (inactive),10.5 µM (inactive),2.61 µM (inactive),4.09 µM (inactive),> 35.6 µM (inactive),6.95 µM,3.15 µM (inactive),5.47 µM (inactive),18.6 µM (inactive),7.78 µM (inactive),4.41 µM (inactive),5.13 µM (inactive),3.82 µM (inactive),8.09 µM (inactive),8.43 µM (inactive),8.59 µM (inactive),4.7 µM (inactive),> 20.5 µM (inactive)
O=C1CCCC[C@H]1C(O)CC1CC(=O)N(c2ccccc2)C(=O)C1 (stereo not given in full),> 100 µM (inactive),> 100 µM (inactive),> 100 µM (inactive),> 100 µM (inactive),> 100 µM (inactive),> 100 µM (inactive),> 100 µM (inactive),> 100 µM,> 100 µM (inactive),> 100 µM (inactive),> 100 µM (inactive),> 100 µM (inactive),> 100 µM (inactive),> 100 µM (inactive),> 100 µM (inactive),> 100 µM (inactive),> 100 µM (inactive),> 100 µM (inactive),> 100 µM (inactive),> 100 µM (inactive)
CCOC(=O)CCC(NC(=O)c1ccc(Nc2nc3ccccc3nc2-c2cccs2)cc1)C(=O)OCC (stereo not given),11.4 µM (inactive),21.2 µM (inactive),32.4 µM (inactive),29.8 µM (inactive),20.6 µM (inactive),11.8 µM (inactive),26.6 µM (inactive),21.9 µM,33.9 µM (inactive),7.98 µM (inactive),31 µM (inactive),27.3 µM (inactive),26.9 µM (inactive),29.2 µM (inactive),28.4 µM (inactive),87.3 µM (inactive),7.53 µM (inactive),23 µM (inactive),28 µM (inactive),25.6 µM (inactive)
N#Cc1c(O)c(C=O)c(=O)n2c1[nH]c1ccccc12,> 100 µM (inactive),> 100 µM (inactive),> 100 µM (inactive),> 100 µM (inactive),> 100 µM (inactive),61.4 µM (inactive),> 100 µM (inactive),> 100 µM,> 100 µM (inactive),> 100 µM (inactive),> 100 µM (inactive),> 100 µM (inactive),44.3 µM (inactive),> 100 µM (inactive),> 100 µM (inactive),> 100 µM (inactive),> 100 µM (inactive),> 100 µM (inactive),> 100 µM (inactive),> 100 µM (inactive)
